# According to US20230010886A1 (SUZHOU PUHE BIOPHARMA CO., LTD., priority 2019, published 2023):
# Tests used:
# KYSE-520 cells = assay: Esophageal KYSE-520 xenograft model; assay type: in vivo, BALB/c nude mice; details: oral 30 mg/kg per day, once a day for 4 weeks, mice
# Procedure: (§1) KYSE-520 cells were expanded in culture, harvested and injected subcutaneously into 6-8 weeks old female BALB/c nude mice (5×10^6 cell/each mouse, supplemented with Matrigel (1:1) for tumor development, n=9 per group). Subsequent administration of a compound by oral gavage started when the mean tumor size reached approximately 150-200 mm^3. During the treatment (once a day for 4 weeks), the tumor volumes were measured using a caliper. Statistical analysis of difference in tumor volume among the groups were evaluated using a one-way ANOVA. Vehicle alone was the negative control.
# Mai-Pa-ca-2 cells = assay: Pancreatic cancer Mia-Pa-Ca-2 xenograft studies; assay type: in vivo, BALB/c nude mice
# Procedure: as §1, with “Mai-Pa-ca-2” for “KYSE-520”, “21 days),” for “4 weeks),”
# NCI-H358 cells = assay: Combination treatment of a SHP2 inhibitor with other therapeutic agents, NSCLC with KRAS mutant xenograft; assay type: in vivo, BALB/c nude mice; details: 10 mg/kg per day combined with CDK4/6 inhibitor SYB-020097 (30 mg/kg per day), oral once daily for 28 days, mice
# Procedure: as §1, with “NCI-H358” for “KYSE-520”, “compound or combination of compounds” for “compound”
# KYSE-520 cell line = assay: Cell proliferation assay (CellTiter Glo), KYSE-520; assay type: cell-based; details: Homo sapiens, 3-5 days
# Procedure: Firstly, the cells were seeded in 384-well cell culture plate and incubate overnight. The test compounds were added to the cell plate and incubated for 3-5 days. The cell plate was then detected using CellTiter Glo reagents.
# Full length SHP2 enzyme = target: T1, Full length SHP2 enzyme (Homo sapiens, UniProt Q06124); assay: SHP2 phosphatase assay; assay type: biochemical; details: 1 μM IRS-1 peptide, DiFMUP substrate
# T1 construct: Full length SHP2 enzyme (diluted to 0.1 nM in reaction buffer)
# T1 sequence (Q06124 1-593): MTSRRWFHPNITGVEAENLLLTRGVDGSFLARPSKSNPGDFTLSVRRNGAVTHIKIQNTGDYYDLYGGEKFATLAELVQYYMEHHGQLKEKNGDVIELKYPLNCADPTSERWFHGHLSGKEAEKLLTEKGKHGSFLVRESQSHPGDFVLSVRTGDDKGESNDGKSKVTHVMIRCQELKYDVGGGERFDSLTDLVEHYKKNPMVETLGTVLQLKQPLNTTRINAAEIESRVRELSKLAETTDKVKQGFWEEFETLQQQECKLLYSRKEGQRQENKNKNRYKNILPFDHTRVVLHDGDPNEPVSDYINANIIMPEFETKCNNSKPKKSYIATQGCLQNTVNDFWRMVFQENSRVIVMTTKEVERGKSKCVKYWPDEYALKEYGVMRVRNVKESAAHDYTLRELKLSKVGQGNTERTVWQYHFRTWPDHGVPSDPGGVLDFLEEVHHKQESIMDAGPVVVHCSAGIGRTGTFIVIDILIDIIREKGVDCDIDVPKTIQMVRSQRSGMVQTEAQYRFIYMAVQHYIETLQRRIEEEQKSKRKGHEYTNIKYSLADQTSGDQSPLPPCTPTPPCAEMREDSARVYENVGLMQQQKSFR
# Procedure: IC50 values were determined at room temperature in 384-well black polystyrene plate, using a final reaction volume of 15 μL and the following assay buffer conditions: 60 mM Hepes (pH=7.2), 75 mM NaCl, 75 mM KCl, and 1 mM EDTA, 0.05% P-20, 5 mM dithiothreitol (DTT). Full length SHP2 enzyme (diluted to 0.1 nM in reaction buffer) were co-incubated with 1 μM IRS-1 peptide and 0.01 nM to 10 μM compounds of the disclosure for 60 min. The surrogate substrate DiFMUP (5 μL, 100 μM) was added, and incubated at rt for 60 min. The reaction was then quenched by the addition of 5 μL of a 40 μM solution of bpV(Phen). The fluorescence signal was monitored using a microplate reader (Envision, Perkin-Elmer) using excitation and emission wavelengths of 360 nm and 450 nm, respectively. The inhibitor dose-response curves were analyzed using normalized IC50 regression curve fitting with control-based normalization.
SMILES,IC50 (Full length SHP2 enzyme) [nM],IC50 (KYSE-520 cell line) [nM],other results
C[C@@H]1OCC2(CCN(c3ncc(Sc4cccc(Cl)c4Cl)[nH]c3=O)CC2)[C@@H]1N,,,"anti-tumor activity compared with reference compound (KYSE-520 cells): superior anti-tumor activities than reference compound RMC-4550; tumor growth inhibition (KYSE-520 cells): more than 90%; reduction of tumor growth, combination vs each compound alone (Mai-Pa-ca-2 cells; 30 mg/kg per day co-administered with CDK4/6 inhibitor SYB-020097 (50 mg/kg per day)): significantly higher reduction of tumor growth; reduction of tumor growth, combination vs each compound alone (Mai-Pa-ca-2 cells; 30 mg/kg per day co-administered with MEK inhibitor SYB-020099 (1 mg/kg per day)): significantly higher reduction of tumor growth; improvement of combination over monotherapy (NCI-H358 cells): more than 50%"
"NC1COCC12CCN(c1ncc(Sc3cccc(Cl)c3Cl)[nH]c1=O)CC2 (stereo not shown) [Example 10, 3-(4-amino-2-oxa-8-azaspiro[4.5]decan-8-yl)-6-((2,3-dichlorophenyl)thio)pyrazin-2 (1H)-one]",,< 5000,
"C[C@@H]1OCC2(CCN(c3ncc(Sc4cccc(F)c4Cl)[nH]c3=O)CC2)[C@@H]1N [Example 109, 3-((3S,4S)-4-amino-3-methyl-2-oxa-8-azaspiro[4.5]decan-8-yl)-6-((2-chloro-3-fluorophenyl)thio)pyrazin-2(1H)-one]",≤ 50,< 5000,
"N[C@@H]1c2cccnc2CC12CCN(c1ncc(Sc3cccc(Cl)c3Cl)[nH]c1=O)CC2 [Example 134, (S)-3-(5-amino-5,7-dihydrospiro[cyclopenta[b]pyridine-6,4′-piperidin]-1′-yl)-6-((2,3-dichlorophenyl)thio)pyrazin-2(1H)-one]",≤ 50,,
"N[C@H]1CCCC12CCN(c1ncc(Sc3ccnc(Cl)c3Cl)[nH]c1=O)CC2 [Example 135, (S)-3-(1-amino-8-azaspiro[4.5]decan-8-yl)-6-((2,3-dichloropyridin-4-yl)thio)pyrazin-2(1H)-one]",≤ 50,,
[2H][C@@]1(N)[C@H](C)OCC12CCN(c1ncc(Sc3cccc(Cl)c3Cl)[nH]c1=O)CC2 [Example 136],≤ 50,,

# Now from value to compound, other results behind:
IC50 (Full length SHP2 enzyme) [nM],SMILES,IC50 (KYSE-520 cell line) [nM],other results
≤ 50,"CC1(CN)CCN(c2ncc(Sc3cccc(NC(=O)c4c(O)nc5ccccn5c4=O)c3Cl)[nH]c2=O)CC1 [Example 29, N-(3-((5-(4-(aminomethyl)-4-methylpiperidin-1-yl)-6-oxo-1,6-dihydropyrazin-2-yl)thio)-2-chlorophenyl)-2-hydroxy-4-oxo-4H-pyrido[1,2-a]pyrimidine-3-carboxamide]",< 5000,
≤ 50,"CC1(CN)CCN(c2ncc(Sc3cccc(NC(=O)c4c(O)nc5sccn5c4=O)c3Cl)[nH]c2=O)CC1 [Example 31, N-(3-((5-(4-(aminomethyl)-4-methylpiperidin-1-yl)-6-oxo-1,6-dihydropyrazin-2-yl)thio)-2-chlorophenyl)-7-hydroxy-5-oxo-5H-thiazolo[3,2-a]pyrimidine-6-carboxamide]",< 5000,
≤ 50,"N[C@@H]1COCC12CCN(c1ncc(Sc3cccc(Cl)c3Cl)[nH]c1=O)CC2 [Example 73, (S)-3-(4-amino-2-oxa-8-azaspiro[4.5]decan-8-yl)-6-((2,3-dichlorophenyl)thio)pyrazin-2 (1H)-one]",< 5000,
≤ 50,"C[C@@H]1OCC2(CCN(c3ncc(Sc4ccnc(Cl)c4Cl)[nH]c3=O)CC2)[C@@H]1N [Example 81, 3-((3S,4S)-4-amino-3-methyl-2-oxa-8-azaspiro[4.5]decan-8-yl)-6-((2,3-dichloropyridin-4-yl)thio)pyrazin-2(1H)-one]",< 1000,
≤ 50,"C[C@@H]1OCC2(CCN(c3ncc(Sc4cccc(F)c4F)[nH]c3=O)CC2)[C@@H]1N [Example 82, 3-((3S,4S)-4-amino-3-methyl-2-oxa-8-azaspiro[4.5]decan-8-yl)-6-((2,3-difluorophenyl)thio)pyrazin-2(1H)-one]",< 5000,
≤ 50,"C[C@@H]1OCC2(CCN(c3ncc(Sc4ccnc(F)c4Cl)[nH]c3=O)CC2)[C@@H]1N [Example 83, 3-((3S,4S)-4-amino-3-methyl-2-oxa-8-azaspiro[4.5]decan-8-yl)-6-((3-chloro-2-fluoropyridin-4-yl)thio)pyrazin-2(1H)-one]",< 1000,
≤ 50,C[C@@H]1OCC2(CCN(c3ncc(Sc4ccnc(F)c4F)[nH]c3=O)CC2)[C@@H]1N [Example 84],< 1000,
